Results published in patent US11306066B2, “4H-pyran compounds as insulin-regulated aminopeptidase (IRAP) inhibitors” (Monash University, priority 2015, dated 2022).
Read-outs that look alike come from different tables or passages of the source. Each block holds one compound with its values, some of them ahead of it.

Target: T1, recombinant IRAP (Homo sapiens, UniProt Q9UIQ6)
T1 construct: expressed in transfected cells; host or cells: HEK 293T
Experiment: IRAP enzymatic assay (hydrolysis of Leu-MCA)
Type: biochemical
Details: for Ki: calculated from IC50, substrate Leu-MCA; for IC50: substrate Leu-MCA
Experimental: An in vitro enzymatic assay was used to initially assess IRAP inhibitory activity.
Crude membranes were prepared from HEK 293T cells transfected with IRAP or empty vector, then solubilized in buffer consisting of 50 mM Tris-HCl, 1% Triton X-100, pH 7.4 at 4° C. under agitation over 5 h. After solubilization, the membranes were pelleted by centrifugation at 23,100 g for 15 min at 4° C., and the supernatant was reserved as the source of IRAP activity. The enzymatic activities of recombinant IRAP were determined by the hydrolysis of the synthetic substrate Leu-MCA (Sigma-Aldrich, Missouri, USA) monitored by the release of a fluorogenic product, MCA, at excitation and emission wavelengths of 380 and 440 nm, respectively. Assays were performed in 96-well plates; each well contains between 0.2-10 μg solubilized membrane protein, a range of concentration of substrate in a final volume of 100 μL 50 mM Tris-HCl buffer (pH 7.4). Non-specific hydrolysis of the substrate was corrected by subtracting the emission from incubations with membranes transfected with empty vector. Reactions proceeded at 37° C. for 30 min within a thermostatted FLEX station fluorescence microplate reader (Molecular Devices, Sunnyvale, Calif.). The kinetic parameters (Km and V) were determined by non-linear fitting of the Michaelis-Menten equation (GraphPad Prism, GraphPad Software Inc., CA, USA); final concentrations of Leu-MCA of 15.6 μM-1 mM. Inhibitor constants (Ki) for the competitive inhibitors were calculated from the relationship IC50=[…], where IC50 values were determined over a range of inhibitor concentrations (10^−9 to 10^−4 M). Km values of IRAP for Leu-MCA were determined from the kinetic studies. Binding affinities of the compounds to IRAP were examined by monitoring the inhibition of the hydrolysis of Leu-MCA in the presence of increasing concentrations of the compounds (10^−8 to 10^−3 M). All data obtained were from at least three separate experiments performed in duplicate.
The results for some compounds of Formula (I) are set out below in Tables 2-1 to 2-8. The compounds were obtained commercially (Specs, Interbioscreen Ltd and Chembridge Corporation) or prepared according to the procedures outlined above.

T1 sequence (Q9UIQ6 whole entry): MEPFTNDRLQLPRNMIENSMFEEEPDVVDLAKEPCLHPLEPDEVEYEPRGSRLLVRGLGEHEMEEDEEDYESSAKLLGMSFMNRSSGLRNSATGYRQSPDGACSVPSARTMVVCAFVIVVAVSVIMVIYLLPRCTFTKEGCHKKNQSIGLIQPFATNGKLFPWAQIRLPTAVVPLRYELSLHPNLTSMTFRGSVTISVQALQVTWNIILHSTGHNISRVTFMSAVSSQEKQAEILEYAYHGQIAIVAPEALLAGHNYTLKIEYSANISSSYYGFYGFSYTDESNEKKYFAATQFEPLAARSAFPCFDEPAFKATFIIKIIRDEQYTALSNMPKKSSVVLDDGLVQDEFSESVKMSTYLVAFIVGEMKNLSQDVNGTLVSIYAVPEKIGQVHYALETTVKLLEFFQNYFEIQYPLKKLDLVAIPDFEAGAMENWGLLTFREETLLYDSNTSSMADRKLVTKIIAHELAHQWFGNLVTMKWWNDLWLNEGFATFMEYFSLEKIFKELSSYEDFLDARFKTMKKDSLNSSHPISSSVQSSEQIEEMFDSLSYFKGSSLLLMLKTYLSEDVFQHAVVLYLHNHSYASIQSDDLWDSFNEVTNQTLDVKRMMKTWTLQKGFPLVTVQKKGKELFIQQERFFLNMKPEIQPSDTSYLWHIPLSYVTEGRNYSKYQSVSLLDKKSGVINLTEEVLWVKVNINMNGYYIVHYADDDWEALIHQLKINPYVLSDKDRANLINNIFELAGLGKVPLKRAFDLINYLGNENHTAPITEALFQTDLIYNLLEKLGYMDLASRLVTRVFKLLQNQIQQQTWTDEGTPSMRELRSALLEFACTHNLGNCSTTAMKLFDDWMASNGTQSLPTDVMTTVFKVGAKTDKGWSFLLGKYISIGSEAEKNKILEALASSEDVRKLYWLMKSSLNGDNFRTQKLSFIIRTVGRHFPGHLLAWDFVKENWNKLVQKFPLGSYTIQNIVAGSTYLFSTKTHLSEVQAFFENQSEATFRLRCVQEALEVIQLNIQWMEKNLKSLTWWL

Ki (Table 2-1): 13.7 µM
IC50 (Table 2-1, read-out: IC50): 23 µM
SMILES: CCOC(=O)C1=C(C)OC(N)=C(C#N)C1c1cc(Br)c(O)c(OC)c1 (stereo not shown) [Compound 11a]

Ki (Table 2-1): 13.1 µM
IC50 (Table 2-1, read-out: IC50): 22 µM
SMILES: CCOC(=O)C1=C(C)OC(N)=C(C#N)C1c1ccc(O)c(OC)c1 (stereo not shown) [Compound 11b]

Ki (Table 2-1): 61.3 µM
IC50 (Table 2-1, read-out: IC50): 103 µM
SMILES: CCOC(=O)C1=C(C)OC(N)=C(C#N)C1c1ccc(O)cc1 (stereo not shown) [Compound 11e]

IC50 (Table 2-1, read-out: IC50): > 50 µM
SMILES: CCOC(=O)C1=C(C)OC(N)=C(C#N)C1c1ccc2c(c1)OCO2 (stereo not shown) [Compound 11g]

Ki (Table 2-1): 37.5 µM
IC50 (Table 2-1, read-out: IC50): 63 µM
SMILES: CCOC(=O)C1=C(C)OC(N)=C(C#N)C1c1cc(OC)c2c(c1)OCO2 (stereo not shown) [Compound 11h]

IC50 (Table 2-1, read-out: IC50): > 50 µM
SMILES: CCOC(=O)C1=C(C)OC(N)=C(C#N)C1c1ccc(OC)c(OC)c1 (stereo not shown) [Compound 11i]

IC50 (Table 2-1, read-out: IC50): > 100 µM
SMILES: CCOC(=O)C1=C(C)OC(N)=C(C#N)C1c1ccc(C#N)cc1 (stereo not shown) [Compound 11j]

Ki (Table 2-1): 18.4 µM
IC50 (Table 2-1, read-out: IC50): 31 µM
SMILES: CCOC(=O)C1=C(C)OC(N)=C(C#N)C1c1ccc(C(=O)O)cc1 (stereo not shown) [Compound 11k, 4-(2-Amino-3-cyano-5-(ethoxycarbonyl)-6-methyl-4H-pyran-4-yl)benzoic Acid]

IC50 (Table 2-1, read-out: IC50): > 100 µM
SMILES: CCOC(=O)C1=C(C)OC(N)=C(C#N)C1c1ccc([N+](=O)[O-])cc1 (stereo not shown) [Compound 11l]

IC50 (Table 2-1, read-out: IC50): > 100 µM
SMILES: CCOC(=O)C1=C(C)OC(N)=C(C#N)C1c1cccc(C(=O)O)c1 (stereo not shown) [Compound 11m, 3-(2-Amino-3-cyano-5-(ethoxycarbonyl)-6-methyl-4H-pyran-4-yl)benzoic Acid]

SMILES: CCOC(=O)C1=C(C)OC(N)=C(C#N)C1c1ccc(OC(C)=O)c(C)c1 (stereo not shown) [Compound 11n, Ethyl 4-(4-acetoxy-3-methylphenyl)-6-amino-5-cyano-2-methyl-4H-pyran-3-carboxylate]
IC50 (Table 2-1, read-out: IC50): > 100 µM

SMILES: CCOC(=O)C1=C(C)OC(N)=C(C#N)C1c1cc(C)c(OC(C)=O)c(C)c1 (stereo not shown) [Compound 11o, Ethyl 4-(4-acetoxy-3,5-dimethylphenyl)-6-amino-5-cyano-2-methyl-4H-pyran-3-carboxylate]
IC50 (Table 2-1, read-out: IC50): > 100 µM

IC50 (Table 2-1, read-out: IC50): > 100 µM
SMILES: CCOC(=O)C1=C(C)OC(N)=C(C#N)C1c1ccc(-c2ccccn2)cc1 (stereo not shown) [Compound 11p, Ethyl 6-amino-5-cyano-2-methyl-4-(4-(pyridin-2-yl)phenyl)-4H-pyran-3-carboxylate]

IC50 (Table 2-1, read-out: IC50): > 50 µM
SMILES: CCOC(=O)C1=C(C)OC(N)=C(C#N)C1c1cccnc1 (stereo not shown) [Compound 11q]

IC50 (Table 2-1, read-out: IC50): > 100 µM
SMILES: CCOC(=O)C1=C(C)OC(N)=C(C#N)C1c1ccncc1 (stereo not shown) [Compound 11r]

IC50 (Table 2-1, read-out: IC50): 3 to 40 µM
SMILES: CCOC(=O)C1=C(C)OC(N)=C(C#N)C1c1ccc2ccccc2n1 (stereo not shown) [Compound 11s, Ethyl 6-amino-5-cyano-2-methyl-4-(quinolin-2-yl)-4H-pyran-3-carboxylate]

IC50 (Table 2-1, read-out: IC50): > 100 µM
SMILES: CCOC(=O)C1=C(C)OC(N)=C(C#N)C1c1cnc2ccccc2c1 (stereo not shown) [Compound 11t, Ethyl 6-amino-5-cyano-2-methyl-4-(quinolin-3-yl)-4H-pyran-3-carboxylate]

IC50 (Table 2-1, read-out: IC50): > 100 µM
SMILES: CCOC(=O)C1=C(C)OC(N)=C(C#N)C1c1ccnc2ccccc12 (stereo not shown) [Compound 11u, Ethyl 6-amino-5-cyano-2-methyl-4-(quinolin-4-yl)-4H-pyran-3-carboxylate]

Ki (Table 2-2): 85.1 µM
IC50 (Table 2-2, read-out: IC50): 143 µM
SMILES: CCOC(=O)C1=C(CC)OC(N)=C(C#N)C1c1ccc(O)c(OC)c1 (stereo not shown) [Compound 12a]

Ki (Table 2-2): 67.2 µM
IC50 (Table 2-2, read-out: IC50): 113 µM
SMILES: CCOC(=O)C1=C(CC)OC(N)=C(C#N)C1c1ccc(O)c(OCC)c1 (stereo not shown) [Compound 12c]

Ki (Table 2-3): 8.3 µM
IC50 (Table 2-3, read-out: IC50): 14 µM
SMILES: COC(=O)C1=C(C)OC(N)=C(C#N)C1c1ccc(C(=O)O)cc1 (stereo not shown) [Compound 13b, 4-(2-Amino-3-cyano-5-(methoxycarbonyl)-6-methyl-4H-pyran-4-yl)benzoic Acid]

IC50 (Table 2-3, read-out: IC50): > 100 µM
SMILES: COC(=O)C1=C(C)OC(N)=C(C#N)C1c1ccc(O)cc1 (stereo not shown) [Compound 13c]

Ki (Table 2-3): 8.3 µM
IC50 (Table 2-3, read-out: IC50): 14 µM
SMILES: COC(=O)C1=C(C)OC(N)=C(C#N)C1c1ccc(O)c(OC)c1 (stereo not shown) [Compound 13d]

Ki (Table 2-4): 16.7 µM
IC50 (Table 2-4, read-out: IC50): 28 µM
SMILES: COc1ccc(C2C(C#N)=C(N)OC(C)=C2C(=O)OCc2ccccc2)cc1OC (stereo not shown) [Compound 14a]

Ki (Table 2-4): 3 µM
IC50 (Table 2-4, read-out: IC50): 5 µM
SMILES: CC1=C(C(=O)OCc2ccccc2)C(c2ccc(C(=O)O)cc2)C(C#N)=C(N)O1 (stereo not shown) [Compound 14b, 4-(2-Amino-5-(benzyloxycarbonyl)-3-cyano-6-methyl-4H-pyran-4-yl)benzoic Acid]

IC50 (Table 2-4, read-out: IC50): 10 to 100 µM
SMILES: COC(=O)c1ccc(C2C(C#N)=C(N)OC(C)=C2C(=O)OCc2ccccc2)cc1 (stereo not shown) [Compound 14c]

IC50 (Table 2-4, read-out: IC50): > 100 µM
SMILES: CC1=C(C(=O)OCc2ccccc2)C(c2ccc(C#N)cc2)C(C#N)=C(N)O1 (stereo not shown) [Compound 14d, Benzyl 6-amino-5-cyano-4-(4-cyanophenyl)-2-methyl-4H-pyran-3-carboxylate]

Ki (Table 2-5): 1.8 µM
IC50 (Table 2-5, read-out: IC50): 2 to 4 µM
SMILES: CC(=O)C1=C(C)OC(N)=C(C#N)C1c1ccc(C(=O)O)cc1 (stereo not shown) [Compound 15a, 4-(3-Acetyl-6-amino-5-cyano-2-methyl-4H-pyran-4-yl)benzoic Acid]

Ki (Table 2-5): 3.9 µM
IC50 (Table 2-5, read-out: IC50): 6 to 7 µM
SMILES: CC(=O)C1=C(C)OC(N)=C(C#N)C1c1cccc(C(=O)O)c1 (stereo not shown) [Compound 15b, 3-(3-Acetyl-6-amino-5-cyano-2-methyl-4H-pyran-4-yl)benzoic Acid]

Ki (Table 2-5): 16.7 µM
IC50 (Table 2-5, read-out: IC50): 28 µM
SMILES: COc1cc(C2C(C#N)=C(N)OC(C)=C2C(C)=O)ccc1O (stereo not shown) [Compound 15c]

Ki (Table 2-5): 59.5 µM
SMILES: CC(=O)C1=C(C)OC(N)=C(C#N)C1c1ccc(C#N)cc1 (stereo not shown) [Compound 15d]

Ki (Table 2-5): 10.1 µM
IC50 (Table 2-5, read-out: IC50): 17 µM
SMILES: CC(=O)C1=C(C)OC(N)=C(C#N)C1c1ccc2ccccc2n1 (stereo not shown) [Compound 15i, 5-Acetyl-2-amino-6-methyl-4-(quinolin-2-yl)-4H-pyran-3-carbonitrile]

IC50 (Table 2-5, read-out: IC50): > 100 µM
SMILES: CC(=O)C1=C(C)OC(N)=C(C#N)C1c1ccc2nccnc2c1 (stereo not shown) [Compound 15j, 5-Acetyl-2-amino-6-methyl-4-(quinoxalin-6-yl)-4H-pyran-3-carbonitrile]

Ki (Table 2-6): 4.2 µM
SMILES: CC(=O)NC1=C(C#N)C(c2ccc(C(=O)O)cc2)C(C(C)=O)=C(C)O1 (stereo not shown) [Compound 16, 4-(2-Acetamido-5-acetyl-3-cyano-6-methyl-4H-pyran-4-yl)benzoic Acid]

Ki (Table 2-7): 4.2 µM
IC50 (Table 2-7, read-out: IC50): 7 µM
SMILES: CCOC(=O)C1=C(C)OC(N)=C(C(=O)OCC)C1c1ccc(C(=O)O)cc1 (stereo not shown) [Compound 17a, 4-(2-Amino-3,5-bis(ethoxycarbonyl)-6-methyl-4H-pyran-4-yl)benzoic Acid]

IC50 (Table 2-8, read-out: IC50 μ): 40 µM
SMILES: COc1cc(C2C(C#N)=C(N)Oc3cc(C)oc(=O)c32)cc(Br)c1O (stereo not shown) [Compound 18]
